For assay [1], the system named is second-order arterioles in the cheek pouch of hamsters with spontaneous hypertension. Put plainly: Arteriolar diameter in hamster cheek pouch microcirculation, hamsters with spontaneous hypertension. The assay is classed as in vivo. Here is the method: (§1) Adult male hamsters with spontaneous hypertension (n=21) and age- and genetically-matched normotensive controls (n=20) were purchased from the Canadian Hybrid Farns, Halls Harbor, NS, Canada. In preparation, the animals were anesthetized interperitoneally with sodium pentobarbital (6 mg/100 g body weight) and a tracheostomy was performed to facilitate spontaneous breathing. The left femoral vein was cannulated to inject supplemental anesthesia (2 to 4 mg per 100 g body weight per hour) during the experiment. A catheter was inserted into the left femoral artery to record systemic arterial pressure and heart rate. Body temperature was monitored to maintain a constant 37-38° C. throughout the experiment using a heating pad.
(§2) In order to visualize microcirculation of the cheek pouch, previously described methods were employed [Gao, et al., Life Sci. 64: PL274-PL252 (1994); Mayhan and Joyner, Microvasc. Res. 28: 159-179 (1984); Mayban and Rubinstein, Biochem. Biophys. Res. Commun. 184:1372-1377 (1992); Raud, Acta Physiol. Scand. Suppl. 578:1-58 (1989); Rubinstein and Mayban, J. Lab. Clin. Med. 25:313-318 (1995); Rubinstein, et al., Am. J. Physiol. 261 (Heart Circ. Physiol. 30):111913-111918 (1991); and Suzuki, et al., Life Sci. 57:1451-1457 (1995)]. Briefly, the left cheek pouch was spread over a small plastic baseplate, and an incision was made in the outer skin to expose, the cheek pouch membrane. […]
(§3) Change in arteriolar diameter was determined as follows. […] The inner wall diameter of secondorder arterioles in the cheek pouch was measured from the video display of the microscope image using a videomicrometer (VIA-100, Boeckeler Instruments, Tucson, Ariz.). […]
VIP alone or encapsulated in liposomes was suffused for 7 minutes at a concentration of VIP of either 0.05 or 0.1 nmol peptide, and more than 30 minutes elapsed between subsequent applications of the peptide. Changes in arteriolar diameter before, during, and after topical application of VIP were determined as outlined above. […]

In assay [2] the test system is second-order arterioles in the cheek pouch of normotensive hamsters. The conditions noted are these: 0.1 nmol VIP dissolved in saline; Suzuki et al. 1995; cited from earlier work.
Assay [3] has the same test system. Put plainly: Arteriolar diameter in hamster cheek pouch microcirculation, normotensive hamsters. The conditions noted are these: Example 1; 0.05 or 0.1 nmol VIP suffused for 7 minutes. It is filed as in vivo. As to the method:
According to another experiment, normotensive hamsters were suffused onto the cheek pouch for 7 minutes with 0.1 nmol VIP-PEG-liposome composition which produced a significant increase in mean arterial diameter in situ. The results of this experiment are shown in FIG. 3 with data and significance indicated for results in FIGS. 2A and 2B above. […] Arterial diameter returned to baseline 9 minutes after suffusion was discontinued.
as §1, §2, §3

A further assay relates to neutrophil. Briefly: Neutrophil chemotaxis in two chamber apparatus (response to fmlp). The assay is classed as cell-based. The conditions noted are these: FIG. 5. An excerpt:
Finally, as another experiment the effect of VIP-PEG-liposomes on neutrophil chemotaxis was examined using a two chamber apparatus routinely employed for in vitro analysis of chemotaxis. Neutrophil migration from the upper chamber into the lower chamber in response to formyl-methionyl-leucyl-phenylalanyl (fmlp) peptide in the lower chamber was initially established at a baseline control.

The test system of assay [4] is hamsters with spontaneous hypertension. Put plainly: Mean arterial pressure after intravenous administration, hamsters with spontaneous hypertension. It is filed as in vivo, hamster. An excerpt:
The provisional application further disclosed that a bolus intravenous injection of 1.0 nmol VIP-PEG-liposome compound acted to decrease mean arterial pressure (MAP) in hamsters with spontaneous hypertension. The results are reproduced herein as FIGS. 2A and 2B; FIG. 2A showing the actual decrease on arterial pressure and FIG. 2B showing the percent change. Data are mean values ± one standard error of the mean; an asterisk indicates statistically significant values compared to control with p value less than 0.05.
In examining the duration and efficacy of VIP in the two liposome preparations on mean arterial pressure, the following procedure was carried out. Adult mate hamsters with spontaneous hypertension (n=12) were obtained from the Canadian Hybrid Farms (Hall Harbour, Nova Scotia, Canada). Approximately 500 μl each of three test preparations, liposomes prepared by the second method above, VIP in aqueous solution, and liposomes without VIP, were injected administered over the course of 1 minute in the femoral vein. Continuous anesthesia of the animals limited the duration of the experiment to 6 hours.
Adult male golden Syrian hypertensive hamsters were prepared for intravital microscopy, cheek pouch microcirculation observed and measured, and mean arterial pressure determined, each technique as described above. […]

The values below come from patent publication US6348214B1, “Materials and methods for making improved liposome compositions” (The Board of Trustees of the Illinois, priority 1996, dated 2002).

Ends that are not written are not given here. Some results are limits rather than exact numbers.

For `O=[N+]([O-])OCC(CO[N+](=O)[O-])O[N+](=O)[O-]` [nitroglycerin], the “vasorelaxation, hypertensive versus normotensive hamsters” value in assay [1] (Example 1, endothelium independent vasodilator control in the cheek pouch) is listed as “vasorelaxation of similar magnitude in both groups”.

Consider “vasoactive intestinal peptide (HSDAVFTDNYTRLRKQMAVKKYLNSILN; ends and bridges not checked; UniProt P01282 125-152, looked up) [VIP]”, for which the “increase in arteriolar diameter” value in assay [2] is on record as “approximately 10%”. Besides, the “effect on arteriolar diameter” value in assay [3] was “significant vasodilation”; in assay [1] (Example 1, 0.05 or 0.1 nmol VIP suffused for 7 minutes), “no significant effects on arteriolar diameter”; in assay [1] (Example 5, hypertensive hamsters, suffusion for 7 minutes) it was “no effects”. Moreover, the “time after suffusion was stopped until return to baseline / persistence of vasodilation” value in assay [3] is no more than 1 min. Besides, the “time to maximal response from start of suffusion” value in assay [3] was no more than 4 min. Further, the “neutrophil migration against fmlp in the lower chamber” value in the assay on neutrophil (test substance added with neutrophils in the upper chamber) was “significant migration was observed”. In addition, the “neutrophil migration against test substance in the lower chamber” value in the assay with neutrophil (test substance in lower chamber, no fmlp) is on record as “negligible”. The “effect on mean arterial pressure” value in assay [4] (Example 3, injected in the femoral vein over 1 minute) is given as “No significant effect on mean arterial pressure”; in assay [4] (Example 5, hypertensive hamsters), “no effect”.
